How the values were obtained:
[1] = tested on: Mitogen-activated Protein Kinase (MAPK/ERK1/2); test: Hippocampal MAPK/ERK1/2 (western blot) after 10 days of oral drinking; type: in vivo, Wistar rats; details: oral by drinking 100 mg/Kg for 10 days, hippocampus, FIG. 10
Protocol: Animal experimental procedures were carried out in accordance with the European Communities directive 2010/63/EU and Spanish legislation (Real Decreto 53/2013). The protocol was approved by the Research and approved by Ethics Committee for Animal Experiments of the University of Malaga, Spain. In accordance with the ARRIVE guidelines, all efforts were made to minimize animal suffering and to reduce the number of animals used per experimental group. Chronic drinking experiments on Wistar rats were performed on 20 male rats. All adult rats, ageing 2 months (≈300 g of body weight), were provided by Charles River Laboratories (Barcelona, Spain). The animals were housed individually under a standard 12 h light-dark cycle in a room with temperature and humidity control. Water and rat chow pellets were provided ad libitum throughout the course of the present study. […]
Western Blot Analysis. […] Bands were quantified by densitometric analysis using ImageJ software (Rasband, WS, ImageJ, US National Institutes of Health, Bethesda, Md., USA). […] The results were expressed as the protein/α-Adaptin ratio or phosphorylated/total protein ratio and normalized to the control group (Y axis represents ‘fold mean of the control values’).
All data are expressed as mean±SEM. […]

[2] = Plasma glucose levels after acute oral gavage; type: in vivo; details: oral 500 mg/kg, adult male Wistar rats, FIG. 3C
Protocol: Experimental procedures with animals were carried out in strict accordance with the recommendations in the European Communities directive 2010/63/EU and Spanish legislation (Real Decreto 53/2013, BOE 34/11370-11421, 2013) regulating the care and use of laboratory animals. The protocol was approved by the Ethics Committee for Animal Experiments of the University of Malaga. All studies involving animals were reported in accordance with the ARRIVE guidelines for reporting experiments involving animals (Kilkenny, C., Browne, W. J., Cuthill, I. C., Emerson, M. & Altman, D. G. Improving Bioscience Research Reporting: The ARRIVE Guidelines for Reporting Animal Research. PLoS Biol 8, e1000412, https://doi.org/10.1371/journal.pbio.1000412 (2010). All efforts were made to minimize animal suffering and to reduce the number of animals used. The experiments were performed on 4-to-5-week-old male Wistar rats (Crl:Wl; Charles River Laboratories, Barcelona, Spain). The animals were under a standard 12 h light-dark cycle in a room with temperature and humidity control. All the rats were provided with water and commercially available rat standard pellet diet (STD) (3.02 kcal/g with 30 kcal % protein, 55 kcal % carbohydrates and 15 kcal % fat) ad libitum. […]

## COC1[C@@H](O)[C@@H](O)C(O)[C@H](O)[C@H]1O (stereo partly drawn) [DPIN, (1S,2S,4S,5R)-6-methoxycyclohexane-1,2,3,4,5-pentol]
[1]
  kinase activation and total expression of MAPK/ERK1/2: No other changes
[2]
  glucose levels in plasma: maintenance

From patent US20220313620A1, “COMPOSITION FOR PREVENTING AND TREATING TAUOPATHIES” (SERVICIO ANDALUZ DE SALUD, priority 2019, published 2022)
